Results on 17 compounds are retold here after PubChem BioAssay AID200 (DTP/NCI, 2004).

Where “and” joins values, the source holds several entries; their conditions need not be identical. Identical values can stand only once. Toxic doses and inconclusive results are not listed. Where a SMILES comes first, the peptide text is derived from it. [ ]: non-standard residue; d: D form. The star is where a group is joined. Nle = CCCC[CH](N)C(=O)O; Cbz = O=C(OCc1ccccc1)*; Nva = CCC[CH](N)C(=O)O

The assay relates to B6C3F1 mice, B16 melanoma ip, median survival T/C. The assay is described as follows: NCI In Vivo Anticancer Drug Screen. Data for tumor model B16 Melanoma (intraperitoneal) in B6C3F1 mice. The conditions noted are these: endpoint: median survival time, higher = longer survival. An outline of the steps: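 Antitumor effect was judged in mice with transplanted tumors by dividing the treated group's survival measure by that of vehicle controls.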

[1] abbreviates: dose: 50.0 mg/kg/injection, schedule: Q01DX009 (ip), vehicle: Klucel (hydroxypropylcellulose) (HPC).
Setting [2] is: dose: 100.0 mg/kg/injection, schedule: Q01DX009 (ip), vehicle: Klucel (hydroxypropylcellulose) (HPC).
The mark [3] stands for this setting: dose: 200.0 mg/kg/injection, schedule: Q01DX009 (ip), vehicle: Klucel (hydroxypropylcellulose) (HPC).
The mark [4] stands for this setting: dose: 25.0 mg/kg/injection, schedule: Q01DX009 (ip), vehicle: Klucel (hydroxypropylcellulose) (HPC).
Setting [5] is: dose: 400.0 mg/kg/injection, schedule: Q01DX009 (ip), vehicle: Klucel (hydroxypropylcellulose) (HPC).
[6] abbreviates: dose: 12.5 mg/kg/injection, schedule: Q01DX009 (ip), vehicle: saline with Tween-80.
The mark [7] stands for this setting: dose: 25.0 mg/kg/injection, schedule: Q01DX009 (ip), vehicle: saline with Tween-80.
[8] abbreviates: dose: 50.0 mg/kg/injection, schedule: Q01DX009 (ip), vehicle: saline with Tween-80.
Where [9] appears, read: dose: 100.0 mg/kg/injection, schedule: Q01DX009 (ip), vehicle: saline with Tween-80.
Setting [10] is: dose: 200.0 mg/kg/injection, schedule: Q01DX009 (ip), vehicle: saline with Tween-80.
Setting [11] is: dose: 6.25 mg/kg/injection, schedule: Q01DX009 (ip), vehicle: saline with Tween-80.

As for `COC1CC(C)C(OC)c2cc(O)cc(c2O)NC(=O)/C(C)=C/C=C\C(C)C(OC(N)=O)/C(C)=C\C(C)C1OC` (stereo not given), the T/C reads like this: (dose: 0.31 mg/kg/injection, schedule: Q01DX005 (iv), vehicle: other) 94 % of control; (dose: 0.31 mg/kg/injection, schedule: Q01DX009 (ip), vehicle: other) 109 % of control; (dose: 0.31 mg/kg/injection, schedule: Q01DX009 (ip), vehicle: saline with Tween-80) 98 % of control; (dose: 0.62 mg/kg/injection, schedule: Q01DX005 (iv), vehicle: other) 101 % of control; (dose: 0.62 mg/kg/injection, schedule: Q01DX009 (ip), vehicle: saline with Tween-80) 112 % of control; (dose: 1.25 mg/kg/injection, schedule: Q01DX005 (iv), vehicle: other) 93 % of control. Besides, the T/C reads like this: (dose: 1.25 mg/kg/injection, schedule: Q01DX009 (ip), vehicle: other) 117 % of control; (dose: 2.5 mg/kg/injection, schedule: Q01DX005 (iv), vehicle: other) 102 % of control; (dose: 2.5 mg/kg/injection, schedule: Q01DX009 (ip), vehicle: other) 119 % of control; (dose: 5.0 mg/kg/injection, schedule: Q01DX005 (iv), vehicle: other) 95 % of control; (dose: 5.0 mg/kg/injection, schedule: Q01DX009 (ip), vehicle: saline with Tween-80) 171 % of control; (dose: 10.0 mg/kg/injection, schedule: Q01DX005 (iv), vehicle: other) 109 % of control. For the setting “dose: 10.0 mg/kg/injection, schedule: Q01DX009 (ip), vehicle: other”, the T/C was 114 % of control.
As to `CC(C)(C)OC(=O)NC(Cc1ccccc1)C(=O)O` (stereo not given), the T/C reads like this: under setting [1], 104 % of control; under setting [2], 88 % of control; under setting [3], 100 % of control.
For `Clc1ccc(C2SC=Cc3ccccc32)cc1` (stereo not given), the T/C was 114 % of control under setting [4]; 114 % of control under setting [1]; 118 % of control under setting [2]; 112 % of control under setting [3]; 103 % of control under setting [5].
In the case of `CC(C)CC(NC(=O)OCc1ccccc1)C(=O)O` (stereo not given), the T/C under setting [6] was 108 % of control; the T/C under setting [7] was 102 % of control; the T/C under setting [8] was 102 % of control and 106 % of control; the T/C under setting [9] is 112 % of control and 101 % of control; the T/C under setting [10] was 105 % of control.
Consider `COc1cc2c(cc1O)C1CC(CC3CCCCN31)OC(=O)/C=C\c1ccc(O)c-2c1` (stereo not given), for which the T/C by setting is: (dose: 15.0 mg/kg/injection, schedule: Q01DX009 (ip), vehicle: saline) 101 % of control; (dose: 30.0 mg/kg/injection, schedule: Q01DX009 (ip), vehicle: saline) 104 % of control; (dose: 60.0 mg/kg/injection, schedule: Q01DX009 (ip), vehicle: saline) 114 % of control; (dose: 120.0 mg/kg/injection, schedule: Q01DX009 (ip), vehicle: saline) 102 % of control.
Consider `O=C(O)CNC(=O)c1ccccc1`, for which the T/C (dose: 40.0 mg/kg/injection, schedule: Q01DX009 (ip), vehicle: saline with Tween-80) is 96 % of control and the T/C (dose: 80.0 mg/kg/injection, schedule: Q01DX009 (ip), vehicle: saline with Tween-80) is 95 % of control.
For `CC(/C=C/c1ccccc1)=Nc1ccccc1`, the T/C was 99 % of control under setting [6]; 102 % of control under setting [7]; 99 % of control under setting [8]; 115 % of control under setting [9]; 110 % of control under setting [10].
`COc1cccc2c1C(=O)c1c(O)c3c(c(O)c1C2=O)C[C@H](O)C[C@@H]3OC1CC(N)C(O)C(C)O1` (stereo not given in full): the T/C by setting is: (dose: 0.75 mg/kg/injection, schedule: Q01DX009 (ip), vehicle: saline) 150 % of control; (dose: 0.75 mg/kg/injection, schedule: Q01DX009 (ip), vehicle: water) 159 % of control; (dose: 1.5 mg/kg/injection, schedule: Q01DX009 (ip), vehicle: saline) 184 % of control; (dose: 1.5 mg/kg/injection, schedule: Q01DX009 (ip), vehicle: water) 164 % of control; (dose: 3.0 mg/kg/injection, schedule: Q01DX009 (ip), vehicle: saline) 175 % of control; (dose: 3.0 mg/kg/injection, schedule: Q01DX009 (ip), vehicle: water) 192 % of control. Also, the T/C is, setting by setting: (dose: 6.0 mg/kg/injection, schedule: Q01DX009 (ip), vehicle: saline) 260 % of control; (dose: 6.0 mg/kg/injection, schedule: Q01DX009 (ip), vehicle: water) 215 % of control; (dose: 12.0 mg/kg/injection, schedule: Q01DX009 (ip), vehicle: saline) 346 % of control; (dose: 12.0 mg/kg/injection, schedule: Q01DX009 (ip), vehicle: water) 320 % of control; (dose: 24.0 mg/kg/injection, schedule: Q01DX009 (ip), vehicle: saline) 183 % of control.
With `N#Cc1c(N)[nH]c2ccc(Sc3ccccc3)cc12`, the T/C under setting [11] was 110 % of control, the T/C under setting [6] is 94 % of control, the T/C under setting [7] is 99 % of control and the T/C under setting [8] was 107 % of control.
As for `O=C(O)C1CCCN1C(=O)OCC1c2ccccc2-c2ccccc21` (stereo not given), the T/C by setting is: under setting [2], 107 % of control; under setting [3], 104 % of control.
Regarding `C/C(=N/NC(N)=S)c1ccc2ccccc2c1`, the T/C was 106 % of control under setting [11], 108 % of control under setting [6] and 108 % of control under setting [7].
In the case of `CCCC(NC(=O)C(C)N)C(=O)O` (stereo not given), the T/C was 106 % of control under setting [1], 112 % of control under setting [2], 92 % of control under setting [3] and 98 % of control under setting [5].
On to `COC1C(CO)OC(n2cnc3c(=S)nc(N)[nH]c32)C1O` (stereo not given), for which the T/C is 116 % of control under setting [1] and 114 % of control under setting [2].
Regarding `CC1(C)N=C(N)N=C(N)N1c1cccc(CCCCc2cccc(N)c2)c1`, the T/C is, setting by setting: (dose: 6.25 mg/kg/injection, schedule: Q01DX009 (ip), vehicle: Klucel (hydroxypropylcellulose) (HPC)) 103 % of control; (dose: 12.5 mg/kg/injection, schedule: Q01DX009 (ip), vehicle: Klucel (hydroxypropylcellulose) (HPC)) 108 % of control; under setting [4], 114 % of control.
Turning to `CCCCC(NC(=O)C(CCC)NC(=O)OCc1ccccc1)C(=O)O` (stereo not given) (Cbz-[Nva]-[Nle]-OH; configuration not given here), the T/C runs as follows: under setting [2], 104 % of control; under setting [3], 101 % of control.
With `COc1nc(C(Cl)(Cl)Cl)c(Cl)c(OC)c1Cl`, the T/C is 96 % of control under setting [4] and 104 % of control under setting [1].
For the compound `N[C@@H](Cc1ccc(N(CCCl)CCCl)cc1)C(=O)O`, the T/C reads like this: (dose: 0.25 mg/kg/injection, schedule: Q01DX009 (ip), vehicle: saline) 111 % of control and 124 % of control; (dose: 0.25 mg/kg/injection, schedule: Q01DX009 (ip), vehicle: water) 124 % of control; (dose: 1.0 mg/kg/injection, schedule: Q01DX009 (ip), vehicle: water) 183 % of control; (dose: 2.0 mg/kg/injection, schedule: Q01DX009 (ip), vehicle: saline with Tween-80) 176 % of control; (dose: 2.0 mg/kg/injection, schedule: Q01DX009 (ip), vehicle: water) 194 % of control; (dose: 2.0 mg/kg/injection, schedule: Q04DX003 (ip), vehicle: saline) 164 % of control. The T/C was 182 % of control (dose: 2.5 mg/kg/injection, schedule: Q04DX003 (ip), vehicle: saline); 387 % of control (dose: 4.0 mg/kg/injection, schedule: Q01DX009 (ip), vehicle: saline with Tween-80); 204 % of control (dose: 4.0 mg/kg/injection, schedule: Q04DX003 (ip), vehicle: saline); 217 % of control (dose: 5.0 mg/kg/injection, schedule: Q04DX003 (ip), vehicle: saline); 172 % of control (dose: 7.31 mg/kg/injection, schedule: Q01DX001 (ip), vehicle: other); 230 % of control and 240 % of control (dose: 7.5 mg/kg/injection, schedule: Q04DX003 (ip), vehicle: saline). The T/C by setting is: (dose: 9.75 mg/kg/injection, schedule: Q01DX001 (ip), vehicle: other) 157 % of control; (dose: 10.0 mg/kg/injection, schedule: Q04DX003 (ip), vehicle: saline) 79 % of control; (dose: 13.0 mg/kg/injection, schedule: Q01DX001 (ip), vehicle: other) 173 % of control.
